Data set [1] deals with Ribosomal protein S6 kinase alpha-1/alpha-3 (Homo sapiens) (UniProt P51812+Q15418). Briefly: Inhibition of RSK1/2 (unknown origin) at 10 uM relative to control. Format: protein assay.
For data set [2], the species on record is Homo sapiens. Briefly: Inhibition of MSK (unknown origin) at 10 uM relative to control.
Data set [3] has as its target Rho-associated protein kinase 1 (Homo sapiens) (UniProt Q13464). In words: Inhibition of ROCK1 (unknown origin) at 10 uM relative to control.
For data set [4], the system named is T1, Serine/threonine-protein kinase Sgk1 (Homo sapiens), O00141 [S422D].
T1 sequence (whole entry): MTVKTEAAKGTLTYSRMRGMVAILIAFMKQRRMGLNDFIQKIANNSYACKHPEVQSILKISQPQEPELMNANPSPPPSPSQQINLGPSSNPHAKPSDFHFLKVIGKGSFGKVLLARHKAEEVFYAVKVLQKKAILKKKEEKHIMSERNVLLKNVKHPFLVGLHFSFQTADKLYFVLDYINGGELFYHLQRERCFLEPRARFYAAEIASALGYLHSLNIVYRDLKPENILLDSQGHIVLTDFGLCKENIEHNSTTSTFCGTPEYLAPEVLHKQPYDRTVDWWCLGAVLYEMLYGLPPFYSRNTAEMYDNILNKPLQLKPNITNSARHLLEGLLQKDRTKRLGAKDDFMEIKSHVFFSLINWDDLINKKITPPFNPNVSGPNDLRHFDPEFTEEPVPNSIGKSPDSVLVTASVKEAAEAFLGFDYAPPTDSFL
Briefly: Inhibition of human SGK1 S422D mutant (60 to 431 residues) at 10 uM using substrate after 5 mins in presence of [33P]ATP by scintillation counting method relative to control.

The next data set has as its system BT-474. In words: Anti-tumor activity against human BT474 cells xenografted in CrTac:Ncr-Fox1nu mouse assessed as reduction in tumor weight at 40 mg/kg, po administered once daily for 2 days measured after 26 days relative to control. The data set is classed as functional. For orientation: Xenograft models place foreign cells or tissue in a host animal.
Data set [5] has as its target Rho-associated protein kinase 2 (Rattus norvegicus) (UniProt Q62868). In words: Inhibition of rat ROCK2 (2 to 543 residues) at 10 uM using substrate after 5 mins in presence of [33P]ATP by scintillation counting method relative to control.
The target in data set [6] is cAMP-dependent protein kinase catalytic subunit alpha (Homo sapiens, UniProt P17612). Briefly: Inhibition of recombinant human His-tagged PKA catalytic domain (1 to 351 residues) expressed in Escherichia coli using Ser/Thr 7 as substrate after 1 hr by FRET-based Z'-Lyte assay.
The species entered for data set [7] is Homo sapiens. Briefly: Inhibition of PKA (unknown origin) at 10 uM relative to control.
Data set [8] is described as follows: Ratio of drug level in tumor to plasma in CrTac:Ncr-Fox1nu mouse at 40 mg/kg, po administered once daily for 2 days measured after 24 hrs post last dose. Format: ADME, organism-based.
Data set [9] in a line: Half life in Balb/c mouse at 5 mg/kg, iv by LC-MS/MS analysis. The data set is classed as ADME, organism-based. The following applies: in vivo.
For data set [10], the system named is Ribosomal protein S6 kinase beta-1 (Homo sapiens), P23443 [T412E]. In words: Inhibition of human p70S6K T412E mutant (1 to 421 residues) at 10 uM using substrate after 5 mins in presence of [33P]ATP by scintillation counting method relative to control.
Sequence of Ribosomal protein S6 kinase beta-1 (Homo sapiens), P23443 [T412E] (P23443 whole entry T412E, looked up, the tested form may be a part): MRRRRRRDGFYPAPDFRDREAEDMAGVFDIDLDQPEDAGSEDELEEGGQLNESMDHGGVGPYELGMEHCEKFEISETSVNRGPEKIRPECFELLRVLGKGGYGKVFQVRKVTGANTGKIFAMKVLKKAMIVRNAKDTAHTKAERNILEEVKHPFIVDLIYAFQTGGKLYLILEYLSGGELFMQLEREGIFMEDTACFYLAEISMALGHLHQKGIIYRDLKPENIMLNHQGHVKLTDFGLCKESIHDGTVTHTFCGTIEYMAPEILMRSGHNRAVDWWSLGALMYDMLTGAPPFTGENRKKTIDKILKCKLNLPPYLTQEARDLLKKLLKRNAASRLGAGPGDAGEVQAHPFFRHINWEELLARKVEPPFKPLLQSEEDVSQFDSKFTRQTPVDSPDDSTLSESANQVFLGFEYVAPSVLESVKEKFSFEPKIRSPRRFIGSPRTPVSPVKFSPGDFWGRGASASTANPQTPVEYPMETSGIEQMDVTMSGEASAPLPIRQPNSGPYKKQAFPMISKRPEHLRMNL
The target of data set [11] is Glycogen synthase kinase-3 beta (Homo sapiens) (UniProt P49841). Briefly: Inhibition of GSK3beta phosphorylation at ser9 in human U87MG cells at >1 uM by Western blot analysis relative to control. The data set is classed as cell-based. (In general: A western blot detects proteins with antibodies after separation by electrophoresis.)
Sequence of Glycogen synthase kinase-3 beta (Homo sapiens) (P49841 whole entry, looked up): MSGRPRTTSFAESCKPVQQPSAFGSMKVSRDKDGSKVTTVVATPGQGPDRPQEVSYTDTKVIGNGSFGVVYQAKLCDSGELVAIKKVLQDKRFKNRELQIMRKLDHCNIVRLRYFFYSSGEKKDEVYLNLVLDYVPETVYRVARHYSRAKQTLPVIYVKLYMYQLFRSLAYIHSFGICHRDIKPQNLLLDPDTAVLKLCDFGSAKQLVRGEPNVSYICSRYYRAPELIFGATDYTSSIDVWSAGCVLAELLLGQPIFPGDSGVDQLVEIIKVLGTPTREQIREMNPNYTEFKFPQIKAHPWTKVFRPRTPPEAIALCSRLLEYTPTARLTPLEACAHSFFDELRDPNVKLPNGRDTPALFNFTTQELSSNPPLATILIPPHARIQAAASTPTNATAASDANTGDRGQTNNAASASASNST

This is an account of results in ChEMBL document CHEMBL4020778, “Recent progress towards clinically relevant ATP-competitive Akt inhibitors” (Bioorg Med Chem Lett, 2017).

Sequence of Rho-associated protein kinase 1 (Homo sapiens) (Q13464 2-1354 limits assumed): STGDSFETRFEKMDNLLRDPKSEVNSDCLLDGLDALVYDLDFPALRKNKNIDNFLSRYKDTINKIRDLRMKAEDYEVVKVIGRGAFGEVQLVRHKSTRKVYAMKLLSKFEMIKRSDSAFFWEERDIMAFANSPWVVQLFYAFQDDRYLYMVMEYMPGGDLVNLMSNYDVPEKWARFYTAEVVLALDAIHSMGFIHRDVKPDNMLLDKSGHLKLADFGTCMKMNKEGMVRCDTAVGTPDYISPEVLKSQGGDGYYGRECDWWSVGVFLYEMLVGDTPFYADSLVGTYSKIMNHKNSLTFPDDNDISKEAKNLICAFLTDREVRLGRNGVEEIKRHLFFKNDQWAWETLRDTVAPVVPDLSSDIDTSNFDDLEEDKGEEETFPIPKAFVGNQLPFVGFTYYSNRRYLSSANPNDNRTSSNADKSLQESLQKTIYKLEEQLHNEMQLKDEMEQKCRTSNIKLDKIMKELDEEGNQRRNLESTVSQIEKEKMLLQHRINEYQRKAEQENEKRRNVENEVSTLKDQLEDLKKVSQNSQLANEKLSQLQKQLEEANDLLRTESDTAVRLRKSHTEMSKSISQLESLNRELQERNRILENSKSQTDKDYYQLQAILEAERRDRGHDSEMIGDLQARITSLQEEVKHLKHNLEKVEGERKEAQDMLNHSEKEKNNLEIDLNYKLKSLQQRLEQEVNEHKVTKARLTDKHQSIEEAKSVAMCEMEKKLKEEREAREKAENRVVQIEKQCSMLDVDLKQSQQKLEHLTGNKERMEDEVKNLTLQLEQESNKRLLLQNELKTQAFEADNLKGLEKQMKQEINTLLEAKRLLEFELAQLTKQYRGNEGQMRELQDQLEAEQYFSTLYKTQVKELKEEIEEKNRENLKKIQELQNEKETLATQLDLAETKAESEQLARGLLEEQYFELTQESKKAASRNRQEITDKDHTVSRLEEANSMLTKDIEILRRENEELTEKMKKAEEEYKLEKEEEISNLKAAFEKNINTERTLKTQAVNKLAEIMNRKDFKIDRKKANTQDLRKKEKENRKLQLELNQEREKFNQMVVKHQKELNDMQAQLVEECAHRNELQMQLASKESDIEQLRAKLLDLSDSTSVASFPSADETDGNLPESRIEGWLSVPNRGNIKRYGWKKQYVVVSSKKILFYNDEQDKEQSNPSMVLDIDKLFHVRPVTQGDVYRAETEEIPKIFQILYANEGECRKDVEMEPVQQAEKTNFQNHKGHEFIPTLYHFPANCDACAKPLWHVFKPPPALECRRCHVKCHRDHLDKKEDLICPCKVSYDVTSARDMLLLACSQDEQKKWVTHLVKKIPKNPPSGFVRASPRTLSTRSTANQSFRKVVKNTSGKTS
Sequence of Rho-associated protein kinase 2 (Rattus norvegicus) (Q62868 whole entry, looked up, the tested form may be a part): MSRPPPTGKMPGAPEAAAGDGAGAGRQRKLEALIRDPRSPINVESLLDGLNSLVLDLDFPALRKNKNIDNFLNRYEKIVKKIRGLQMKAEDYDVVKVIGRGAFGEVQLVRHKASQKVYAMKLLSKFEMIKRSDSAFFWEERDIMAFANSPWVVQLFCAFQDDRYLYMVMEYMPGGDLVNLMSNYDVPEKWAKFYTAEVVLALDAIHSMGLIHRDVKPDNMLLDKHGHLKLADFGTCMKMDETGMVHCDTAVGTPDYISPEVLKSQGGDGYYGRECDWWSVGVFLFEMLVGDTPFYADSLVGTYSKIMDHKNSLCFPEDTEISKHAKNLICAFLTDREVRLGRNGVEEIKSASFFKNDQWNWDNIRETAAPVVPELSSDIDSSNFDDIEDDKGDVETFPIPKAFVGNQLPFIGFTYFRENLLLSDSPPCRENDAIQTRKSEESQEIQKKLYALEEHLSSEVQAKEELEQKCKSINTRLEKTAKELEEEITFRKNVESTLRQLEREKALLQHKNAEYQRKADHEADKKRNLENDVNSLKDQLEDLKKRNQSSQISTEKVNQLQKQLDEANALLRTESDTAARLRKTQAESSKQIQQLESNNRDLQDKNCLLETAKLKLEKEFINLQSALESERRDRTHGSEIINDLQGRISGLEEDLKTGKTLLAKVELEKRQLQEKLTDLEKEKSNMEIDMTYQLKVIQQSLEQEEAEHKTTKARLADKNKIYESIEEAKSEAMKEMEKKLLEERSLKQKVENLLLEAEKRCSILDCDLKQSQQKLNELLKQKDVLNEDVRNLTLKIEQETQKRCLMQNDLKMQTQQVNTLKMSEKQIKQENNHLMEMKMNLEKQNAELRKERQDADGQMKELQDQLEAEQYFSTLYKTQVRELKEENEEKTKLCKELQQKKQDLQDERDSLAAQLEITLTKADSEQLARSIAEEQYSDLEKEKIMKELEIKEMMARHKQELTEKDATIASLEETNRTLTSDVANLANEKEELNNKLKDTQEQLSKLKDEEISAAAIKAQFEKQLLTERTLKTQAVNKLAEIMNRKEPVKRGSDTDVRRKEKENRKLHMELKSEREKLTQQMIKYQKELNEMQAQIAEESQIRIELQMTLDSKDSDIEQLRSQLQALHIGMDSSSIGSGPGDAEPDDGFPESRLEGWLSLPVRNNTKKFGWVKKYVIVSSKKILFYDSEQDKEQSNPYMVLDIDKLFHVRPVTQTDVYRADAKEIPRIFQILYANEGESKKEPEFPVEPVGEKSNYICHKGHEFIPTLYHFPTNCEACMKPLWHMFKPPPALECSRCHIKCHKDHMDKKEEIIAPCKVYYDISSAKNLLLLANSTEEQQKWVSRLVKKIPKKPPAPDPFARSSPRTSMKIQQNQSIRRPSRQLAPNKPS

With `NC[C@@](O)(c1ccc(Cl)cc1)c1ccc(-c2cn[nH]c2)cc1` [AT-13148], the inhibition (in data set [1]; in the data set listed under Homo sapiens [2]; in data set [3]; in data set [4]; in data set [5]; in the data set listed under Homo sapiens [7]) was above 80% each time. Also, the inhibition in data set [10] is above 80%; in [11] it was 50%. The T/C in the data set on BT-474 was found to be 36%. Besides, the 50% inhibitory concentration (IC50) in [6] is below 10 nM. Further, in [8], the Kp at 24 h was found to be 13.6. In addition, in data set [9], the half-life is 2.8 h.

The term inhibition denotes the drop in the measured response relative to a control, in per cent. Broadly, the T/C is the result in the treated group divided by that in the control group, in per cent. Broadly, the IC50 is the concentration needed to halve the response being measured. As a reminder, the Kp is the ratio of the level in a tissue or fluid to that in plasma or blood. As usually defined, the half-life is the time needed for the level to fall by half in the phase considered.
